Data as given in patent publication US5527820A, “Antibiotics having immunosuppressive activity, delaminomycins and processes for the production of the same” (priority 1992, dated 1996).
Values after ≈ are worked out from the molar mass of the structure shown. Like-named read-outs stand apart in the source and are kept apart here.

Assays:
[1] = tested on: Candida albicans 3147; assay: MIC, agar plate dilution method; type: cell-based; details: 27° C., 42 hours, nutrient agar containing glucose
[2] = tested on: Trichophyton asteroides 429; assay: MIC, agar plate dilution method; type: cell-based; details: 27° C., 42 hours, nutrient agar containing glucose
[3] = tested on: Piricularia oryzae; assay: microbe, parasite or virus in culture; type: cell-based; details: 42 h
[4] = tested on: Candida pseudotropicalis F-2; assay: MIC, agar plate dilution method; type: cell-based; details: Kluyveromyces marxianus, F2; 27° C., 42 hours, nutrient agar containing glucose
[5] = tested on: Trichophyton mentagrophytes F-15 (833); assay: MIC, agar plate dilution method; type: cell-based; details: 27° C., 42 hours, nutrient agar containing glucose
[6] = tested on: Human Lymphoma Jurkat; assay: Inhibitory activity on proliferation of cancer cells; type: cell-based
[7] = tested on: Mouse leukemia L-1210; assay: as above; type: cell-based; details: L1210
[8] = tested on: Mouse leukemia P388D1; assay: as above; type: cell-based
[9] = tested on: Pellicularia sasakii; assay: MIC, agar plate dilution method; type: cell-based; details: 27° C., 42 hours, nutrient agar containing glucose
[10] = tested on: Gram-positive bacteria; assay: Antibacterial activity to Gram-positive bacteria; type: cell-based; details: result in words
Excerpt: (§1) Delaminomycins A, B, C, A2, B2 and C2 according to this invention further have an antibacterial activity against a variety of bacteria. The minimum growth inhibitory concentrations (MIC) (μg/ml) of the novel antibiotics of this invention on various bacteria and fungi as measured by the agar plate dilution method are shown in Table 5a, Table 5b, Table 5c and Table 5d below.

[11] = tested on: Saccharomyces cerevisiae F-7; assay: MIC, agar plate dilution method; type: cell-based; details: F7, 27° C., 42 hours, nutrient agar containing glucose
[12] = tested on: Mouse melanoma B-16; assay: Inhibitory activity on proliferation of cancer cells; type: cell-based; details: B16
[13] = tested on: nylon wool-passed cells of spleen cells (responder cell; T cells); assay: Inhibitory activity to the mixed lymphocyte culture reaction; type: cell-based, rat (Fischer F344 responder; WKY stimulator); details: for inhibition at 0.1 µg/mL / inhibition at 0.39 µg/mL / inhibition at 1.56 µg/mL / inhibition at 6.25 µg/mL / inhibition at 25 µg/mL / inhibition at 100 µg/mL / IC50: Rattus norvegicus, T-cell; for inhibition at 0.1 µg/mL: 0.10 μg/ml test compound; for inhibition at 0.1 µg/mL / inhibition at 0.39 µg/mL / inhibition at 1.56 µg/mL / inhibition at 6.25 µg/mL / inhibition at 25 µg/mL / inhibition at 100 µg/mL: read-out: Inhibition rate; for inhibition at 0.39 µg/mL: 0.39 μg/ml test compound; for inhibition at 6.25 µg/mL: 6.25 μg/ml test compound; for inhibition at 25 µg/mL: 25 μg/ml test compound; for inhibition at 100 µg/mL: 100 μg/ml test compound; for IC50: 120 hours, 3H-thymidine incorporation, read-out: IC50 (inhibition of mixed lymphocyte culture reaction); for activity to inhibit the proliferation of the T cells (responder cell) in mixed lymphocyte culture reaction: in vitro, result in words
[14] = tested on: Candida Yu-1200; assay: MIC, agar plate dilution method; type: cell-based; details: YU1200, 27° C., 42 hours, nutrient agar containing glucose
[15] = tested on: Xanthomonas citri; assay: MIC, agar plate dilution method; type: cell-based; details: 27° C., 42 hours, nutrient agar containing glucose
Procedure: as §1
(§2) Evaluated after culturing at 27° C. for 42 hours in nutrient agar
(§3) medium containing glucose.

[16] = tested on: Cochliobolus miyabeanus; assay: MIC, agar plate dilution method; type: cell-based; details: Bipolaris oryzae; 27° C., 42 hours, nutrient agar containing glucose
Procedure: as §1, §2, §3

[17] = tested on: Candida krusei F-5; assay: MIC, agar plate dilution method; type: cell-based; details: Pichia kudriavzevii, F5; 27° C., 42 hours, nutrient agar containing glucose
[18] = tested on: Candida tropicalis F-1; assay: MIC, agar plate dilution method; type: cell-based; details: F1, 27° C., 42 hours, nutrient agar containing glucose
[19] = Absorption into the digestive tracts on oral administration; details: result in words
[20] = tested on: Mouse leukemia EL-4; assay: Inhibitory activity on proliferation of cancer cells; type: cell-based; details: EL4
[21] = Solubility; details: result in words; for Solubility: various solvents
[22] = tested on: Aspergillus niger F-16; assay: MIC, agar plate dilution method; type: cell-based; details: F16, 27° C., 42 hours, nutrient agar containing glucose
[23] = tested on: spleen cells (T cells activated by Concanavalin A); assay: Inhibitory activity against blastogenesis and proliferation of spleen cells caused by mitogen (Con A); type: cell-based, mouse (CDF1); details: for IC50: read-out: IC50 (inhibition of blastogenesis and proliferation of spleen lymphocyte caused by Con A); for inhibition at 0.39 µg/mL: 0.39 μg/ml test compound; for inhibition at 1.56 µg/mL: 1.56 μg/ml test compound; for inhibition at 6.25 µg/mL: 6.25 μg/ml test compound; for inhibition at 25 µg/mL: 25 μg/ml test compound; for inhibition at 100 µg/mL: 100 μg/ml test compound; for activity inhibitory to the reaction of proliferation of mouse spleen cells activated with Concanavalin A: in vitro, result in words
[24] = tested on: delayed-type hypersensitivity (DTH); assay: Suppressive effect on delayed-type hypersensitivity (DTH) in mouse, oral; type: in vivo, mouse (CDF1); details: oral once a day, 0~4th day
Procedure: CDF1 mice were immunized by intravenously injecting sheep red blood cells (10^5 cells/mouse). On the 4th day after the immunization, sheep red blood cells (10^8 cells/mouse) were subcutaneously injected into the footpad of mice for the elicitation to cause a delayed-type hypersensitivity. Test compound was orally administered to the mice once a day from the 0 th day to the 4 th day after the immunization. On the 5th day after the elicitation, the thickness of the mouse footpad was measured to estimate the suppressive effect of the test compound on DTH. The suppressive effect of the test compound was evaluated in terms of the inhibition rate (%) as calculated according to the following equation:
Inhibition rate (%)=100-(T/C×100)
wherein T denotes the thickness of the footpad when the test compound was administered, but C denotes the thickness of the footpad when no test compounnd was administered.

[25] = Mus musculus, T-cell, read-out: Inhibition rate

Row | SMILES | MIC [1] | MIC [2] | IC50 [7] | inhibition at 0.1 µg/mL [13] | inhibition at 0.39 µg/mL [13] | inhibition at 6.25 µg/mL [13] | inhibition at 25 µg/mL [13] | inhibition at 100 µg/mL [13] | IC50 [13] | activity to inhibit the proliferation of the T cells (responder cell) in mixed lymphocyte culture reaction [13] | absorption into the digestive tracts / oral absorption [19] | Solubility [21] | Solubility in water [21] | IC50 ([23]; Mus musculus, T-cell) | inhibition at 0.39 µg/mL [23, 25] | inhibition at 6.25 µg/mL [23, 25] | inhibition at 25 µg/mL [23, 25] | inhibition at 100 µg/mL [23, 25] | activity inhibitory to the reaction of proliferation of mouse spleen cells activated with Concanavalin A [23] | Inhibition rate (DTH footpad thickness) ([24]; 2.0 mg/mouse) | also measured
1 | CCC(O)C(C)/C=C/C=C/C(O)CC1C=CC2CC(C)CC(C)C2C1(C)C(=O)C1C(=O)CNC1=O (stereo not drawn) [Delaminomycin C] | > 100 µg/mL | > 100 µg/mL | 42 µg/mL (≈ 86.5 µM) | 19.5% | 41.6% | 97.3% | 97.6% | 96.9% | 0.5 µg/mL (≈ 1.03 µM) | have an activity to inhibit the reaction of proliferation of the T cells | hardly absorbed into the digestive tracts | soluble in methanol but slightly soluble or insoluble in water, acetone, ethyl ether and n-hexane | barely soluble in water | 1 µg/mL (≈ 2.06 µM) | 1% | 75% | 76% | 76% | exhibit an activity inhibitory to the reaction of proliferation of mouse spleen cells | – | MIC [3]: > 100 µg/mL; MIC [4]: > 100 µg/mL; MIC [5]: > 100 µg/mL; IC50 [6]: 1.2 µg/mL (≈ 2.47 µM); IC50 [8]: 3.1 µg/mL (≈ 6.38 µM); MIC [9]: > 50 µg/mL; antibacterial activity to Gram-positive bacteria [10]: antibacterial activity to Gram-positive bacteria; MIC [11]: > 100 µg/mL; IC50 [12]: 7.4 µg/mL (≈ 15.2 µM); inhibition at 1.56 µg/mL ([13]; 1.56 μg/ml test compound): 89%; MIC [14]: > 100 µg/mL; MIC [15]: > 100 µg/mL; MIC [16]: > 100 µg/mL; MIC [17]: > 100 µg/mL; MIC [18]: > 100 µg/mL; IC50 [20]: 1.9 µg/mL (≈ 3.91 µM); MIC [22]: > 100 µg/mL; inhibition at 1.56 µg/mL [23, 25]: 75%
2 | CCC(OS(=O)(=O)O)C(C)/C=C/C=C/C1CC2C=CC3CC(C)CC(C)C3C2(C)C(=O)C12C(=O)CNC2=O (stereo not drawn) | – | – | – | – | – | – | – | – | – | – | – | – | – | – | – | – | – | – | – | 35.4% | –
3 | CCC(OS(=O)(=O)O)C(C)/C=C/C=C/C1CC2C=CC3CC(C)CC(C)C3C2(C)C(=O)C12C(=O)NC(OC)C2=O (stereo not drawn) | – | – | – | – | – | – | – | – | – | – | – | – | – | – | – | – | – | – | – | 40.2% | –
4 | CCC(O)C(C)/C=C/C=C/C(O)CC1C=CC2CC(C)CC(C)C2C1(C)C(=O)C1C(=O)NC(OC)C1=O (stereo not drawn) [Delaminomycin B] | > 100 µg/mL | > 100 µg/mL | 30 µg/mL (≈ 58.2 µM) | 12.1% | 27.9% | 95.1% | 95% | 93.2% | 1.1 µg/mL (≈ 2.13 µM) | have an activity to inhibit the reaction of proliferation of the T cells | hardly absorbed into the digestive tracts | soluble in methanol but slightly soluble or insoluble in water, acetone, ethyl ether and n-hexane | barely soluble in water | 4 µg/mL (≈ 7.76 µM) | 0% | 77% | 69% | 70% | exhibit an activity inhibitory to the reaction of proliferation of mouse spleen cells | – | MIC [3]: > 100 µg/mL; MIC [4]: > 100 µg/mL; MIC [5]: > 100 µg/mL; IC50 [6]: 8.2 µg/mL (≈ 15.9 µM); IC50 [8]: 13.3 µg/mL (≈ 25.8 µM); MIC [9]: > 50 µg/mL; MIC [11]: > 100 µg/mL; IC50 [12]: > 100 µg/mL; inhibition at 1.56 µg/mL [13]: 58.4%; MIC [14]: > 100 µg/mL; MIC [15]: > 100 µg/mL; MIC [16]: > 100 µg/mL; MIC [17]: > 100 µg/mL; MIC [18]: > 100 µg/mL; IC50 [20]: 11.1 µg/mL (≈ 21.5 µM); MIC [22]: > 100 µg/mL
5 | CCC(OS(=O)(=O)O)C(C)/C=C/C=C/C1CC2C=CC3CC(C)CC(C)C3C2(C)C(=O)C12C(=O)NC(O)C2=O (stereo not drawn) | – | – | – | – | – | – | – | – | – | – | – | – | – | – | – | – | – | – | – | 56.3% | Inhibition rate (DTH footpad thickness) ([24]; 0.5 mg/mouse): -0.7%; Inhibition rate (DTH footpad thickness) ([24]; 8.0 mg/mouse): 85.2%
6 | CCC(O)C(C)/C=C/C=C/C1CC2C=CC3CC(C)CC(C)C3C2(C)C(=O)C12C(=O)CNC2=O (stereo not drawn) [Delaminomycin C2] | – | – | 3.6 µg/mL (≈ 7.7 µM) | -7% | -6% | -1% | 29% | 99% | 37.9 µg/mL (≈ 81 µM) | have an activity to inhibit the reaction of proliferation of the T cells | hardly absorbed into the digestive tracts | Soluble in methanol, ethyl acetate and chloroform but slightly soluble or insoluble in n-hexane and water | barely soluble in water | 1.6 µg/mL (≈ 3.42 µM) | 0% | 84% | 85% | 93% | exhibit an activity inhibitory to the reaction of proliferation of mouse spleen cells | 25.7% | antibacterial activity to Gram-positive bacteria [10]: antibacterial activity to Gram-positive bacteria; inhibition at 1.56 µg/mL ([13]; 1.56 μg/ml test compound): 1%; inhibition at 0.1 µg/mL ([23]; Mus musculus, T-cell, 0.1 μg/ml test compound, read-out: Inhibition rate): 0%; inhibition at 1.56 µg/mL [23, 25]: 49%
